Source: ChEMBL document CHEMBL1141611, “Truncation and non-natural amino acid substitution studies on HTLV-I protease hexapeptidic inhibitors” (Bioorg Med Chem Lett, 2008)
*1 amine or outer side, *2 acyl side, *3 side chain or, on linkers, in order; H or OH if unused. Where a SMILES comes first, the peptide text is derived from it. [ ]: non-standard residue; d: D form. X1 = O=C([C@@H](O)[C@H](Cc1ccccc1)N[*:1])[*:2]; Thz(5,5-Me2) = CC1(C)SCN[C@@H]1C(=O)O

Legend:
[1] = target: Protease (Human immunodeficiency virus 1) (UniProt Q9YQ12); experiment: Inhibition of HIV1 protease at 50 nM
Chain of Protease (Human immunodeficiency virus 1) (Q9YQ12 as listed by the source): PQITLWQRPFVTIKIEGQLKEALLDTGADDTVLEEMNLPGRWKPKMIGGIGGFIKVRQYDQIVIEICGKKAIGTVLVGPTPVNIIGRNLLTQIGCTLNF

[2] = target: Gag-Pro polyprotein (Human T-cell leukemia virus 1 (strain Japan ATK-1 subtype A) (HTLV-1), UniProt P10274, L40I); experiment: Inhibition of HTLV1 protease L40I mutant expressed in Escherichia coli BL21(DE3)pLysS; parameters: species or system Human T-cell leukemia virus type I
Chain of Gag-Pro polyprotein (P10274 450-574 L489I): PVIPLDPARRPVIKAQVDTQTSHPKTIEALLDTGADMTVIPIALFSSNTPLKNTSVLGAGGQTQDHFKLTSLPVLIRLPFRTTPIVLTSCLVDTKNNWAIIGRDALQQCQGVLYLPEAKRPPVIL

SMILES	inhibition [1] [%]	IC50 [2] [nM]
CC(=O)N[C@H](C(=O)N[C@H](C(=O)N[C@@H](Cc1ccccc1)[C@H](O)C(=O)N1CSC(C)(C)C1C(=O)NCc1cccc(I)c1)C(C)(C)C)c1ccccc1 (some centres undefined)	97	473
CC[C@H](C)[C@H](NC(C)=O)C(=O)N[C@H](C(=O)N[C@@H](Cc1ccccc1)[C@H](O)C(=O)N1CSC(C)(C)[C@@H]1C(=O)N[C@H](C(=O)N[C@@H](CCSC)C(N)=O)C(C)(C)C)[C@@H](C)CC	79	180
CC[C@H](C)[C@H](NC(C)=O)C(=O)N[C@H](C(=O)N[C@H](Cc1ccccc1)[C@H](O)C(=O)N1CSC(C)(C)[C@@H]1C(=O)N[C@H](C(=O)N[C@@H](CCSC)C(N)=O)[C@@H](C)CC)[C@@H](C)CC	73	180
CCCNC(=O)C1N(C(=O)[C@@H](O)[C@H](Cc2ccccc2)NC(=O)[C@@H](NC(=O)[C@@H](NC(C)=O)c2ccccc2)C(C)(C)C)CSC1(C)C (some centres undefined)	98	193
CC[C@H](C)[C@H](NC(=O)[C@@H](NC(C)=O)C(C)(C)C)C(=O)N[C@@H](Cc1ccccc1)[C@H](O)C(=O)N1CSC(C)(C)[C@@H]1C(=O)N[C@H](C(=O)N[C@@H](CCSC)C(N)=O)[C@@H](C)CC	98	201
C=CCNC(=O)C1N(C(=O)[C@@H](O)[C@H](Cc2ccccc2)NC(=O)[C@@H](NC(=O)[C@@H](NC(C)=O)c2ccccc2)C(C)(C)C)CSC1(C)C (some centres undefined)	> 99	131
CC[C@H](C)[C@H](NC(=O)[C@@H]1N(C(=O)[C@@H](O)[C@H](Cc2ccccc2)NC(=O)[C@@H](NC(=O)[C@@H](NC(C)=O)c2ccccc2)C(C)(C)C)CSC1(C)C)C(=O)N[C@@H](CCSC)C(N)=O	99	101
CC[C@H](C)[C@H](NC(=O)[C@@H]1N(C(=O)[C@@H](O)[C@H](Cc2ccccc2)NC(=O)[C@@H](NC(=O)[C@@H](NC(C)=O)c2ccccc2)C(C)(C)C)CSC1(C)C)C(N)=O	93	144
CC[C@H](C)[C@H](NC(=O)[C@@H](NC(C)=O)c1ccccc1)C(=O)N[C@@H](Cc1ccccc1)[C@H](O)C(=O)N1CSC(C)(C)[C@@H]1C(=O)N[C@H](C(=O)N[C@@H](CCSC)C(N)=O)[C@@H](C)CC	98	102
CC[C@H](C)[C@H](NC(=O)[C@@H]1N(C(=O)[C@@H](O)[C@H](Cc2ccccc2)NC(=O)[C@@H](NC(=O)[C@@H](NC(C)=O)c2ccccc2)C(C)(C)C)CSC1(C)C)C(=O)N[C@@H](CCC(N)=O)C(N)=O	98	84
CSCC[C@H](NC(=O)[C@@H](NC(=O)[C@@H]1CCCN1C(=O)[C@@H](O)[C@H](Cc1ccccc1)NC(=O)[C@@H](NC(=O)[C@H](CCC(N)=O)NC(=O)[C@@H]1CCCN1)C(C)C)C(C)C)C(=O)N[C@@H](Cc1cnc[nH]1)C(=O)O (H-PQV[X1]PVMH-OH)	< 30	159
CC(=O)N[C@H](C(=O)N[C@H](C(=O)N[C@@H](Cc1ccccc1)[C@H](O)C(=O)N1CSC(C)(C)C1C(=O)NCc1ccccc1C)C(C)(C)C)c1ccccc1 (some centres undefined)	99	103
CC[C@H](C)[C@H](NC(C)=O)C(=O)N[C@H](C(=O)N[C@@H](Cc1ccccc1)[C@H](O)C(=O)N1CSC(C)(C)[C@@H]1C(=O)N[C@H](C(=O)N[C@@H](CCSC)C(N)=O)c1ccccc1)[C@@H](C)CC	86	123
CSCC[C@H](NC(=O)[C@@H](NC(=O)[C@H]1N(C(=O)[C@@H](O)[C@H](Cc2ccccc2)NC(=O)[C@@H](NC(=O)[C@H](CCC(N)=O)NC(=O)[C@@H]2CCCN2)C(C)C)CSC1(C)C)C(C)C)C(=O)N[C@@H](Cc1cnc[nH]1)C(=O)O (H-PQV[X1][Thz(5,5-Me2)]VMH-OH)		152
C=C(C)CNC(=O)C1N(C(=O)[C@@H](O)[C@H](Cc2ccccc2)NC(=O)[C@@H](NC(=O)[C@@H](NC(C)=O)c2ccccc2)C(C)(C)C)CSC1(C)C (some centres undefined)	> 99	140
CC[C@H](C)[C@H](NC(=O)[C@@H]1N(C(=O)[C@@H](O)[C@H](Cc2ccccc2)NC(=O)[C@@H](NC(=O)[C@@H](NC(C)=O)[C@@H](C)CC)[C@@H](C)CC)CSC1(C)C)C(N)=O	57	249
CC[C@H](C)[C@H](NC(C)=O)C(=O)N[C@H](C(=O)N[C@@H](Cc1ccccc1)[C@H](O)C(=O)N1CSC(C)(C)[C@@H]1C(=O)N[C@H](C(=O)N[C@@H](CCSC)C(N)=O)[C@@H](C)CC)[C@@H](C)CC	98	88
CSCC[C@H](NC(=O)[C@@H](NC(=O)[C@H]1N(C(=O)[C@@H](O)[C@H](Cc2ccccc2)NC(=O)[C@@H](NC(=O)[C@H](CCC(N)=O)NC(C)=O)C(C)C)CSC1(C)C)C(C)C)C(N)=O (Ac-QV[X1][Thz(5,5-Me2)]VM-NH2)	96	353
CC[C@H](C)[C@H](NC(C)=O)C(=O)N[C@@H](Cc1ccccc1)[C@H](O)C(=O)N1CSC(C)(C)[C@@H]1C(=O)N[C@H](C(=O)N[C@@H](CCSC)C(N)=O)[C@@H](C)CC	89	> 1000
CC[C@H](C)[C@H](NC(C)=O)C(=O)N[C@H](C(=O)N[C@@H](Cc1ccccc1)[C@H](O)C(=O)N1CSC(C)(C)[C@@H]1C(=O)N[C@H](C(=O)N[C@@H](CCSC)C(N)=O)[C@@H](C)CC)c1ccccc1	88	320
CC(=O)N[C@H](C(=O)N[C@H](C(=O)N[C@@H](Cc1ccccc1)[C@H](O)C(=O)N1CSC(C)(C)C1C(=O)NCC1CC1)C(C)(C)C)c1ccccc1 (some centres undefined)	99	146
CC[C@H](C)[C@H](NC(C)=O)C(=O)N[C@H](C(=O)N[C@@H](Cc1ccccc1)[C@H](O)C(=O)N1CSC(C)(C)[C@@H]1C(=O)N[C@H](C(=O)N[C@@H](C)C(N)=O)[C@@H](C)CC)[C@@H](C)CC	82	160
CC[C@H](C)[C@H](NC(C)=O)C(=O)N[C@H](C(=O)N[C@@H](Cc1ccccc1)[C@H](O)C(=O)N1CSC(C)(C)[C@@H]1C(=O)N[C@H](C(=O)N[C@@H](Cc1ccccc1)C(N)=O)[C@@H](C)CC)[C@@H](C)CC	98	95
CC(=O)N[C@H](C(=O)N[C@H](C(=O)N[C@@H](Cc1ccccc1)[C@H](O)C(=O)N1CSC(C)(C)C1C(=O)NCC(C)(C)C)C(C)(C)C)c1ccccc1 (some centres undefined)	99	113
CSCC[C@H](NC(=O)[C@@H](NC(=O)[C@H]1N(C(=O)[C@@H](O)[C@H](Cc2ccccc2)NC(=O)[C@@H](NC(=O)[C@H](CCC(N)=O)NC(=O)[C@@H]2CCCN2)C(C)C)CSC1(C)C)C(C)C)C(=O)N[C@@H](Cc1c[nH]cn1)C(=O)O (H-PQV[X1][Thz(5,5-Me2)]VMH-OH)	58	
CC[C@H](C)[C@H](NC(C)=O)C(=O)N[C@H](C(=O)N[C@@H](Cc1ccccc1)[C@H](O)C(=O)N1CSC(C)(C)[C@@H]1C(=O)N[C@H](C(=O)N[C@@H](CCC(N)=O)C(N)=O)[C@@H](C)CC)[C@@H](C)CC	93	159
CC[C@H](C)[C@H](NC(C)=O)C(=O)N[C@H](C(=O)N[C@@H](Cc1ccccc1)[C@H](O)C(=O)N1CSC(C)(C)[C@@H]1C(=O)N[C@H](C(=O)N[C@@H](CCSC)C(N)=O)[C@@H](C)CC)C(C)(C)C	97	145
CC(=O)N[C@H](C(=O)N[C@H](C(=O)N[C@@H](Cc1ccccc1)[C@H](O)C(=O)N1CSC(C)(C)C1C(=O)NCC(C)C)C(C)(C)C)c1ccccc1 (some centres undefined)	> 99	107
